Values quoted from earlier work as cited in US6365621B1, “Remedies or preventives for intractable epilepsy” (Pharmaceutical Co., Ltd., priority 1998, dated 2002).

Tested on: kainate-induced amygdala seizures
Details: high concentration; cited from earlier work

NS(=O)(=O)Cc1noc2ccccc12 [zonisamide]
Suppression of status epilepticus of kainate-induced amygdala seizure in acute phase: proven suppression effect
